The subject of this assay is T1, rMaBGA (recombinant β-1,3-galactosidase MaBGA).
T1 construct: full-length ORF in pET-22b(+) NdeI/XhoI, 6xHis tag (C-terminal by vector and primer design), E. coli BL21(DE3), IMAC + SEC, 66 kDa on SDS-PAGE; primers imply N-terminus MKLGVCYY and native C-terminus AIWQEI before LE-His tag
Kind of assay: ONP release at […] nm, nonlinear Michaelis-Menten fit. It is filed as biochemical, Marinomonas sp. BSi20414. The following applies: 50 mM PBS pH 7.0, 37 °C (general activity assay); 0.25-5 mM ONPG.

This is an account of results in PMC6267478, “Heterologous Expression of a Thermostable β-1,3-Galactosidase and Its Potential in Synthesis of Galactooligosaccharides” (Marine Drugs, 2018).

By Km is commonly meant the substrate concentration at which the rate is half of its maximum.

On to `O=[N+]([O-])c1ccccc1O[C@@H]1O[C@H](CO)[C@H](O)[C@H](O)[C@H]1O` [ONPG], for which the Michaelis-Menten constant (Km) is 6.85 mM.
